What follows are compounds tested on HCT116 colorectal cancer cells (assay: Cisplatin sensitization assay (96 h MTS cell viability)). Conditions: Cisplatin sensitization value.
Assay type: cell-based
Procedure, shortened: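 HCT116 cells were dosed simultaneously with compound and cisplatin as a full matrix of 2-fold serial dilutions from 10 μM top final concentration. Incubation was 96 h at 37° C., 5% CO2, followed by 1 h with MTS reagent for the viability read-out. Sensitization values were binned into +++, ++ and + categories.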
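Also: compound concentration needed to lower the IC50 of Cisplatin alone by a set fold.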

Compound | Cisplatin Sensitization Assay
Cn1c(-c2ccncc2NC(=O)c2c(N)nn3cc(F)cnc23)cccc1=O [I-C-58, 2-amino-6-fluoro-N-(1-methyl-6-oxo-1,6-dihydro-[2,4′-bipyridin]-3′-yl)pyrazolo[1,5-a]pyrimidine-3-carboxamide] | +++ (Compounds with a Cisplatin sensitization value of <0.02 μM are marked with “+++.”)
Cc1nc(F)ccc1-c1ccncc1NC(=O)c1c(N)nn2cc(F)cnc12 [I-C-34, 2-amino-6-fluoro-N-(6-fluoro-2-methyl-[3,4′-bipyridin]-3′-yl)pyrazolo[1,5-a]pyrimidine-3-carboxamide] | +++ (Compounds with a Cisplatin sensitization value of <0.02 μM are marked with “+++.”)
Nc1nn2cc(F)cnc2c1C(=O)Nc1cncc(F)c1N1CCC(C(=O)O)CC1 [I-N-92, 1-(3-(2-amino-6-fluoropyrazolo[1,5-a]pyrimidine-3-carboxamido)-5-fluoropyridin-4-yl)piperidine-4-carboxylic acid] | + (Compounds with a Cisplatin sensitization value >0.2 μM but <5 μM are marked with “+.”)
Nc1nn2cc(F)cnc2c1C(=O)Nc1cnccc1N1CCC(C(=O)N2CC3(COC3)C2)CC1 [I-G-88, N-(4-(4-(2-oxa-6-azaspiro[3.3]heptane-6-carbonyl)piperidin-1-yl)pyridin-3-yl)-2-amino-6-fluoropyrazolo[1,5-a]pyrimidine-3-carboxamide] | +++ (Compounds with a Cisplatin sensitization value of <0.02 μM are marked with “+++.”)
Nc1nn2cc(F)cnc2c1C(=O)Nc1cnccc1-c1ccccn1 [I-C-60, N-([2,4′-bipyridin]-3′-yl)-2-amino-6-fluoropyrazolo[1,5-a]pyrimidine-3-carboxamide] | ++ (Compounds with a Cisplatin sensitization value >0.02 μM but <0.2 μM are marked with “++.”)
Nc1nn2cc(F)cnc2c1C(=O)Nc1cncc(F)c1N1CCC(C(=O)N2CCNC3CC32)CC1 (stereo not shown) [I-G-62, N-(4-(4-(2,5-diazabicyclo[4.1.0]heptane-2-carbonyl)piperidin-1-yl)-5-fluoropyridin-3-yl)-2-amino-6-fluoropyrazolo[1,5-a]pyrimidine-3-carboxamide] | +++ (Compounds with a Cisplatin sensitization value of <0.02 μM are marked with “+++.”)
COCCN(C)C(=O)C1CCN(c2c(F)cncc2NC(=O)c2c(N)nn3cc(F)cnc23)CC1 [I-G-40, 2-amino-6-fluoro-N-(5-fluoro-4-(4-((2-methoxyethyl)(methyl)carbamoyl)piperidin-1-yl)pyridin-3-yl)pyrazolo[1,5-a]pyrimidine-3-carboxamide] | +++ (Compounds with a Cisplatin sensitization value of <0.02 μM are marked with “+++.”)
NCC1CCN(c2ccncc2NC(=O)c2c(N)nn3cc(Cl)cnc23)CC1 [I-N-91, 2-amino-N-(4-(4-(aminomethyl)piperidin-1-yl)pyridin-3-yl)-6-chloropyrazolo[1,5-a]pyrimidine-3-carboxamide] | ++ (Compounds with a Cisplatin sensitization value >0.02 μM but <0.2 μM are marked with “++.”)
CN1CCC[C@H]1C(=O)N1CCN(c2ccncc2NC(=O)c2c(N)nn3cc(F)cnc23)CC1 [I-N-198, (S)-2-amino-6-fluoro-N-(4-(4-(1-methylpyrrolidine-2-carbonyl)piperazin-1-yl)pyridin-3-yl)pyrazolo[1,5-a]pyrimidine-3-carboxamide] | ++ (Compounds with a Cisplatin sensitization value >0.02 μM but <0.2 μM are marked with “++.”)
CC(C)N1CCN2CCN(c3ccncc3NC(=O)c3c(N)nn4cc(F)cnc34)CC2C1=O (stereo not shown) [I-N-245, 2-amino-6-fluoro-N-(4-(8-isopropyl-9-oxohexahydro-1H-pyrazino[1,2-a]pyrazin-2(6H)-yl)pyridin-3-yl)pyrazolo[1,5-a]pyrimidine-3-carboxamide] | ++ (Compounds with a Cisplatin sensitization value >0.02 μM but <0.2 μM are marked with “++.”)
CN(C)CCN1CCN(c2ccncc2NC(=O)c2c(N)nn3cc(Cl)cnc23)CC1 [I-N-49, 2-amino-6-chloro-N-(4-(4-(2-(dimethylamino)ethyl)piperazin-1-yl)pyridin-3-yl)pyrazolo[1,5-a]pyrimidine-3-carboxamide] | +++ (Compounds with a Cisplatin sensitization value of <0.02 μM are marked with “+++.”)
Nc1nn2cc(Cl)cnc2c1C(=O)Nc1cnccc1OC1CN2CCC1CC2 (stereo not shown) [I-O-62, 2-amino-6-chloro-N-(4-(quinuclidin-3-yloxy)pyridin-3-yl)pyrazolo[1,5-a]pyrimidine-3-carboxamide] | +++ (Compounds with a Cisplatin sensitization value of <0.02 μM are marked with “+++.”)
Nc1nn2cc(F)cnc2c1C(=O)Nc1cncc(F)c1N1CCN(C(=O)C2COC2)CC1 [I-N-278, 2-amino-6-fluoro-N-(5-fluoro-4-(4-(oxetane-3-carbonyl)piperazin-1-yl)pyridin-3-yl)pyrazolo[1,5-a]pyrimidine-3-carboxamide] | +++ (Compounds with a Cisplatin sensitization value of <0.02 μM are marked with “+++.”)
CC(C#N)c1cnc2c(C(=O)Nc3cnccc3N3CCN(C4COC4)CC3)c(N)nn2c1 (stereo not shown) [I-N-143, 2-amino-6-(1-cyanoethyl)-N-(4-(4-(oxetan-3-yl)piperazin-1-yl)pyridin-3-yl)pyrazolo[1,5-a]pyrimidine-3-carboxamide] | ++ (Compounds with a Cisplatin sensitization value >0.02 μM but <0.2 μM are marked with “++.”)
CNCCc1cnn(-c2ccncc2NC(=O)c2c(N)nn3cc(F)cnc23)c1 [I-N-8, 2-amino-6-fluoro-N-(4-(4-(2-(methylamino)ethyl)-1H-pyrazol-1-yl)pyridin-3-yl)pyrazolo[1,5-a]pyrimidine-3-carboxamide] | + (Compounds with a Cisplatin sensitization value >0.2 μM but <5 μM are marked with “+.”)
CC(C)(O)CN1CCN(c2c(F)cncc2NC(=O)c2c(N)nn3cc(F)cnc23)CC1 [I-N-139, 2-amino-6-fluoro-N-(5-fluoro-4-(4-(2-hydroxy-2-methylpropyl)piperazin-1-yl)pyridin-3-yl)pyrazolo[1,5-a]pyrimidine-3-carboxamide] | +++ (Compounds with a Cisplatin sensitization value of <0.02 μM are marked with “+++.”)
CN1CCN(C(=O)C2CCN(c3c(F)cncc3NC(=O)c3c(N)nn4cc(F)cnc34)CC2)CC12CC2 [I-G-38, 2-amino-6-fluoro-N-(5-fluoro-4-(4-(4-methyl-4,7-diazaspiro[2.5]octane-7-carbonyl)piperidin-1-yl)pyridin-3-yl)pyrazolo[1,5-a]pyrimidine-3-carboxamide] | +++ (Compounds with a Cisplatin sensitization value of <0.02 μM are marked with “+++.”)
Nc1nn2cc(F)cnc2c1C(=O)Nc1cncc(F)c1N1CCC(C(=O)N2CC3(COC3)C2)CC1 [I-G-72, N-(4-(4-(2-oxa-6-azaspiro[3.3]heptane-6-carbonyl)piperidin-1-yl)-5-fluoropyridin-3-yl)-2-amino-6-fluoropyrazolo[1,5-a]pyrimidine-3-carboxamide] | +++ (Compounds with a Cisplatin sensitization value of <0.02 μM are marked with “+++.”)
CN1CCC(Oc2ccncc2NC(=O)c2c(N)nn3cc(Cl)cnc23)CC1 [I-O-64, 2-amino-6-chloro-N-(4-((1-methylpiperidin-4-yl)oxy)pyridin-3-yl)pyrazolo[1,5-a]pyrimidine-3-carboxamide] | +++ (Compounds with a Cisplatin sensitization value of <0.02 μM are marked with “+++.”)

From patent US11117900B2 (Vertex Pharmaceuticals Incorporated, priority 2012, dated 2021)
